Patent US9907759B2, “Sildenafil-free base-containing film preparation and method for producing same” (CTC Bio, Inc., priority 2011, dated 2018)
Where a name gives a salt, the structure may show the parent alone.

Tests used:
Type in all cases: physicochemical
Solubility in water = experiment: Solubility in water
[1] = Visual characteristics of the film prepared (particles, transparency)
Experimental: (§1) A preparative experimentation was conducted to analyze the particle size of a sildenafil free base and the characteristics thereof in several film preparations depending on the rpm conditions (3,000 or 5,000 rpm) of a homogenizer (AGI homomixer) and homogenization times (0, 10 and 30 minutes), the film preparations having the same compositions as the Examples shown in Table 6.
(§2) In order to prepare films containing sildenafil free base particles having a smaller size, the film preparation having the same compositions as the Example 8 shown in Table 6 were subject to homogenization using a homogenizer (IKA) at 10,000 rpm for 1 hour.

[2] = Particle size of sildenafil free base, Mastersizer 2000 (Malvern), wet method
Experimental: as §1
First, the raw materials of a sildenafil free base before homogenization were measured for their particle size using Mastersizer 2000 (Malvern) by a wet method, and the results thereof are shown in Table 1. The same procedure was repeated three times.
The particle size changes of a sildenafil free base depending on homogenization times were measured under the condition of a larger scale than the previous experimentation. The homogenization was carried out using a homogenizer (IKA) at 5,000 rpm with increasing homogenization time. The sildenafil free base-containing film preparations used in the homogenization had the same compositions as the Examples shown in Table 6.
as §2

[3] = after homogenization 3000 rpm, 30 minutes
[4] = after homogenization 5000 rpm, 10 minutes
[5] = sildenafil free base raw material before homogenization (Initial)

| Structure (SMILES) | Solubility in water (Solubility in water) | Characteristics ([1]; 3000 rpm, 30 minutes) | Characteristics ([1]; 5000 rpm, 10 minutes) | Particle size D10 [2, 3] [μm] | Particle size D90 [2, 3] [μm] | Particle size D10 [2, 4] [μm] | Particle size D90 [2, 4] [μm] | D10 [2, 5] [μm] | D90 [2, 5] [μm] |
| --- | --- | --- | --- | --- | --- | --- | --- | --- | --- |
| CCCc1nn(C)c2c(=O)[nH]c(-c3cc(S(=O)(=O)N4CCN(C)CC4)ccc3OCC)nc12 [sildenafil free base] | practically insoluble in water | Particles were visually observed | Particles were scarcely observed | 8.91 | 109.66 | 8.59 | 85.99 | 13.48 | 281.74 |
| CCCc1nn(C)c2c(=O)[nH]c(-c3cc(S(=O)(=O)N4CCN(C)CC4)ccc3OCC)nc12 [sildenafil citrate] | can dissolve in water |  |  |  |  |  |  |  |  |
